Values after ≈ are worked out from the molar mass of the structure shown.
What was measured:
FVII = conditions: mice, siRNA formulations; Jayaraman et al. 2012; cited from earlier work
[1] = tested on: 22Rv1 cells modified to stably express luciferase; experiment: Luciferase knockdown by siRNA-LNPs in 22Rv1 cells; assay type: cell-based; conditions: Homo sapiens; siRNA-LNP 50/10/38.5/1.5, N/P 3; 22Rv1 luciferase cells; read-out: half maximal effective siRNA concentration (EC50)
Description: The LNPs contain 50/10/38.5/1.5 mol % of ionizable lipid/DSPC/chol/PEG-DMG (N/P=3) and the siRNA encodes luciferase.
An siRNA targeted against firefly luciferase purchased from Integrated DNA Technologies (IDT, Coralville, IA) was used to assess ability of LNP to knockdown firefly luciferase in a cell line.
LNP formulations containing the ionizable lipids, nor-KC2 or MC3, DSPC, cholesterol, and PEG-DMG were prepared containing siRNA encoding luciferase. The lipid nanoparticles comprise 50/10/38.5/1.5 mol % of ionizable lipid/DSPC/chol/PEG-DMG and the nitrogen-to-phosphorus ratio (N/P) was 3.

SMILES	ED50 for FVII gene silencing (FVII) [mg/kg]	EC50 [1] [µg/mL]
CCCCC/C=C\C/C=C\CCCCCCCCC1(CCCCCCCC/C=C\C/C=C\CCCCC)OCC(CCN(C)C)O1 (stereo not drawn) [KC2]	0.1	–
CCCCC/C=C\C/C=C\CCCCCCCCC(CCCCCCCC/C=C\C/C=C\CCCCC)OC(=O)CCCN(C)C [MC3, dilinoleyl-methyl-4-dimethylaminobutyrate]	–	0.131 (≈ 0.204 µM)
CCCCC/C=C\C/C=C\CCCCCCCC1(CCCCCCC/C=C\C/C=C\CCCCC)OCC(CCN(C)C)O1 (stereo not drawn) [nor-KC2, 2-(2,2-Di((8Z,11Z)-heptadeca-8,11-dien-1-yl)-1,3-dioxolan-4-yl)-N,N-dimethylethan-1-amine]	–	0.137 (≈ 0.224 µM)

Source: patent US20240300914A1, “KC2-Type Lipids” (NanoVation Therapeutics Inc., priority 2021, published 2024)
